Test results: patent publication US9260417B2, “Therapeutic methods and compositions involving allosteric kinase inhibition” (AMITECH THERAPEUTIC SOLUTIONS, INC., priority 2010, dated 2016)

Assays:
[1] = biological target: B-RAF/C-RAF heterodimerization (Homo sapiens (Human), UniProt P15056); assay: B-RAF/C-RAF heterodimerization in HUVECs (immunoprecipitation/Western); format: cell-based; settings: ECs stimulated with bFGF or VEGF
PDGFRB = PDGFRB (Homo sapiens (Human), UniProt P09619); assay: KINOMEscan competitive binding assay
Description: (§2) In vitro kinase screen and competitive binding assay. […] For the competitive binding assay, test compounds were screened at 10 μM against 70 diverse kinase targets for competitive binding using the KINOMEscan™ technology (Ambit Biosciences) (Karaman, et al. (2008) Nature biotechnology 26:127-132). 11-point Kd curves were determined for hits identified during the initial screen.

CSF1R = CSF1R (Homo sapiens (Human), UniProt P07333); assay: In vitro kinase panel (SelectScreen); format: biochemical
Description: (§3) In vitro kinase screen and competitive binding assay. […] 11-point Kd curves were determined for hits identified during the initial screen.

KIT = KIT (Homo sapiens (Human), UniProt P10721); assay: KINOMEscan competitive binding assay
Description: as §2

[2] = system: HUVECs co-cultured with hTERT-human hepatic stellate cells; assay: Stellate cell/endothelial cell co-culture tube formation assay; format: cell-based; settings: […] 6, […] 3, 1.0 μM imatinib, 0.5 μM GW 5074
Description: One representative panel from 3 independent experiments is shown. […] Scale bar=200 μm.
The stellate cells were washed in PBS and mixed with early passage HUVECs (p<5) at a ratio of 1:4 and mixed into a 3.75 mg/ml Type 1 Rat tail collagen matrix (BD Biosciences) in M-199 media. 30 μl of this mixture was seeded onto each well of a half-area 96 well plate (Corning). The collagen was allowed to polymerize for 30 min at 37° C. and […] of complete EBM-2 media was added to each well. Various inhibitors were serially diluted in DMSO and subsequently added to duplicate wells 6 h post cell seeding. […] The endothelial tubes and the stellate cells were imaged at 48 h with a 10× objective on a confocal microscope. Images were collected across five fields per well.
Stellate cell/endothelial cell tube formation assay and mouse matrigel model. This assay was performed as described in the SI Methods. The stellate cells were a gift from Dr. David Brenner and previously described (Schnabl, et al. (2002) Laboratory investigation; a journal of technical methods and pathology 82:323-333). […] The mouse matrigel model was performed as previously described (Eliceiri, et al. (1999) Molecular cell 4:915-924 5) and further details of immunohistochemistry and animal dosing can be found herein.
To validate the findings of Example 10, a co-culture angiogenesis assay was utilized to evaluate similar combinations of PDGFR and RAF inhibitors. In the assay, HUVECs are mixed with hepatic stellate cells (a pericyte found in the perisinusoidal space of the liver) in a 3D-collagen gel. The co-culture produced endothelial tubes with pericyte contacts (from the stellate cells) that can be imaged and quantified as shown in FIGS. 4B and C.

ABL1 = ABL1 (Homo sapiens (Human), UniProt P00519); assay: In vitro kinase panel (SelectScreen); format: biochemical
Description: as §3

PDGFRA = PDGFRA (Homo sapiens (Human), UniProt P16234); assay: KINOMEscan competitive binding assay
Description: as §2

EGFR L861Q = EGFR L861Q (Homo sapiens (Human), UniProt P00533, L861Q); assay: In vitro kinase panel (SelectScreen); format: biochemical
Description: as §3

BRAF = BRAF (Homo sapiens (Human), UniProt P15056); assay: In vitro kinase panel (SelectScreen); format: biochemical
Description: as §3

VSMCs = assay: XTT viability assay in VSMCs; format: cell-based, human; settings: 72 h, full growth medium containing 10% FBS; read-out: EC50, VSMC viability
Description: FIG. 1A-1F illustrate molecular modeling and assay screening to compounds for dual targeting of PDGFRβ and RAF. (FIG. 1A) Molecular modeling of the amino-triazole based small molecules in PDGFRβ and RAF, respectively. […] A homology model of PDGFRβ was created with a structurally-related family member (VEGFR2, PDB 1y6b). […] To autophosphorylation, immunoblots were carried out with a phospho-tyrosine antibody. Membranes were stripped and reprobed for total PDGFRβ levels. […] (FIG. 1D) Structure activity relationships of the amino-triazole based small molecules comparing both PDGFRβ and B-RAF. […] Curves represent the average of 3 separate experiments, error bars represent ±SEM.
For XTT assays, cells were grown in 96-well plates overnight and all assays were conducted in growth medium will full serum and additives. […] Dose-response curves were plotted using GraphPad Prism software and EC50s were calculated using this program.

KDR (VEGFR2) = KDR (VEGFR2) (Homo sapiens (Human), UniProt P35968); assay: In vitro kinase panel (SelectScreen); format: biochemical
Description: as §3

EGFR L858R = EGFR L858R (Homo sapiens (Human), UniProt P00533, L858R); assay: In vitro kinase panel (SelectScreen); format: biochemical
Description: as §3

FLT3 = FLT3 (Homo sapiens (Human), UniProt P36888); assay: KINOMEscan competitive binding assay
Description: as §2

CT26 = assay: Tumor cell viability; format: cell-based; settings: Colon Carcinoma CT26
Description: (§1) For XTT assays, cells were grown in 96-well plates overnight and all assays were conducted in growth medium will full serum and additives. Compounds were serially diluted in DMSO and then further diluted into the medium to give the appropriate concentration while minimizing precipitation associated with serial diluting in medium alone Inhibitors were added for 72 h and cell viability was quantified at 450 nm after the addition of 1 mg/ml XTT solution (Sigma-Aldrich) in phenol-red free DMEM medium containing […] (Sigma-Aldrich). Dose-response curves were plotted using GraphPad Prism software and EC50s were calculated using this program.

A431 = assay: Tumor cell viability; format: cell-based; settings: Epithelial Carcinoma A431, HER1
Description: as §1

M21 = assay: Tumor cell viability; format: cell-based; settings: Melanoma M21
Description: as §1

M21L = assay: Tumor cell viability; format: cell-based; settings: Melanoma M21L
Description: as §1

CDK11 = CDK11 (Homo sapiens (Human), UniProt Q9BWU1); assay: KINOMEscan competitive binding assay; settings: 10 uM
Description: For the competitive binding assay, test compounds were screened at 10 μM against 70 diverse kinase targets for competitive binding using the KINOMEscan™ technology (Ambit Biosciences) (Karaman, et al. (2008) Nature biotechnology 26:127-132). 11-point Kd curves were determined for hits identified during the initial screen.

CRAF S338 = CRAF S338 (Mus musculus (Mouse), UniProt Q99N57); assay: CRAF S338 phosphorylation in R40P cells (Western); format: cell-based; settings: 12 h, sorafenib 5 μM, compound 6 5, 2.5, 1.25 μM
Description: R40P cells are derived from a spontaneous pancreatic adenocarcinoma mouse model which expresses K-ras^G12D while p16/Ink4a/ARF is lost. […] At this time the cells were lysed and protein levels were quantified by BCA analysis. The lysates were then loaded on an SDS-PAGE gel and transferred to nitrocellulose for Western blotting. Immunoblotting was performed with the following antibodies: pMEK1/2 S217/S221 (Cell Signaling), pCRAF S338 (Cell Signaling), and total CRAF (BD Biosciences). Chemilluminescence was used for detection on film.

HCT116 = assay: Tumor cell viability; format: cell-based, human; settings: Colon HCT116, K-Ras
Description: as §1

MDA-MB231 = assay: Tumor cell viability; format: cell-based, human; settings: Breast AC MDA-MB231, B-RAF/Ras
Description: as §1

PDGFRA, sequence (P16234 24-1089): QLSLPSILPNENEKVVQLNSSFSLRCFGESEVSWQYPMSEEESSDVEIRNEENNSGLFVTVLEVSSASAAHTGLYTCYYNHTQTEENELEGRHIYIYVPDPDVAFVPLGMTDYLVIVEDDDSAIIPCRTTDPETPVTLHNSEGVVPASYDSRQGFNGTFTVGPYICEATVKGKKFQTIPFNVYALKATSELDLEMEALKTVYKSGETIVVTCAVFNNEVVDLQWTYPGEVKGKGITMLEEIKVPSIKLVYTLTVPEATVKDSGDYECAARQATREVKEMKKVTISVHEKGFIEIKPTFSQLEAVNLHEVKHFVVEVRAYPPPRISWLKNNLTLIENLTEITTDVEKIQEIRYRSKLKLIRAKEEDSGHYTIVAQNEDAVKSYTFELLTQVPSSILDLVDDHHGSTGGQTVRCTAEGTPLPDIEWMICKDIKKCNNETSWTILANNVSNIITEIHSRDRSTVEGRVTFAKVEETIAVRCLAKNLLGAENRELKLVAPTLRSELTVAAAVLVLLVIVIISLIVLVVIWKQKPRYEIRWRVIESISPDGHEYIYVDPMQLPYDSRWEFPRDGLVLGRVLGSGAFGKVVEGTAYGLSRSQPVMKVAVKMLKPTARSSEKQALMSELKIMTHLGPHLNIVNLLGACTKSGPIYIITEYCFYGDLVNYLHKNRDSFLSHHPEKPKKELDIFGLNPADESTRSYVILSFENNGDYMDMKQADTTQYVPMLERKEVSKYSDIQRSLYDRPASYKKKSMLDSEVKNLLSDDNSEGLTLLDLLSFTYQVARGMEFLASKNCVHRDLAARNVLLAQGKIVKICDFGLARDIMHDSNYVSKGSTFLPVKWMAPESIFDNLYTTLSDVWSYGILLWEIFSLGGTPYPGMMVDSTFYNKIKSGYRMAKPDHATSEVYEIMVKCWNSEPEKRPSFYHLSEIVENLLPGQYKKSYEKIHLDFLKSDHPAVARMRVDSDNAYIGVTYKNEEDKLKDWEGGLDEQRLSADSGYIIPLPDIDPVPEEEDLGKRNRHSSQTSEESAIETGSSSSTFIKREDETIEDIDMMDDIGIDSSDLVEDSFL
KDR (VEGFR2), sequence (P35968 20-1356): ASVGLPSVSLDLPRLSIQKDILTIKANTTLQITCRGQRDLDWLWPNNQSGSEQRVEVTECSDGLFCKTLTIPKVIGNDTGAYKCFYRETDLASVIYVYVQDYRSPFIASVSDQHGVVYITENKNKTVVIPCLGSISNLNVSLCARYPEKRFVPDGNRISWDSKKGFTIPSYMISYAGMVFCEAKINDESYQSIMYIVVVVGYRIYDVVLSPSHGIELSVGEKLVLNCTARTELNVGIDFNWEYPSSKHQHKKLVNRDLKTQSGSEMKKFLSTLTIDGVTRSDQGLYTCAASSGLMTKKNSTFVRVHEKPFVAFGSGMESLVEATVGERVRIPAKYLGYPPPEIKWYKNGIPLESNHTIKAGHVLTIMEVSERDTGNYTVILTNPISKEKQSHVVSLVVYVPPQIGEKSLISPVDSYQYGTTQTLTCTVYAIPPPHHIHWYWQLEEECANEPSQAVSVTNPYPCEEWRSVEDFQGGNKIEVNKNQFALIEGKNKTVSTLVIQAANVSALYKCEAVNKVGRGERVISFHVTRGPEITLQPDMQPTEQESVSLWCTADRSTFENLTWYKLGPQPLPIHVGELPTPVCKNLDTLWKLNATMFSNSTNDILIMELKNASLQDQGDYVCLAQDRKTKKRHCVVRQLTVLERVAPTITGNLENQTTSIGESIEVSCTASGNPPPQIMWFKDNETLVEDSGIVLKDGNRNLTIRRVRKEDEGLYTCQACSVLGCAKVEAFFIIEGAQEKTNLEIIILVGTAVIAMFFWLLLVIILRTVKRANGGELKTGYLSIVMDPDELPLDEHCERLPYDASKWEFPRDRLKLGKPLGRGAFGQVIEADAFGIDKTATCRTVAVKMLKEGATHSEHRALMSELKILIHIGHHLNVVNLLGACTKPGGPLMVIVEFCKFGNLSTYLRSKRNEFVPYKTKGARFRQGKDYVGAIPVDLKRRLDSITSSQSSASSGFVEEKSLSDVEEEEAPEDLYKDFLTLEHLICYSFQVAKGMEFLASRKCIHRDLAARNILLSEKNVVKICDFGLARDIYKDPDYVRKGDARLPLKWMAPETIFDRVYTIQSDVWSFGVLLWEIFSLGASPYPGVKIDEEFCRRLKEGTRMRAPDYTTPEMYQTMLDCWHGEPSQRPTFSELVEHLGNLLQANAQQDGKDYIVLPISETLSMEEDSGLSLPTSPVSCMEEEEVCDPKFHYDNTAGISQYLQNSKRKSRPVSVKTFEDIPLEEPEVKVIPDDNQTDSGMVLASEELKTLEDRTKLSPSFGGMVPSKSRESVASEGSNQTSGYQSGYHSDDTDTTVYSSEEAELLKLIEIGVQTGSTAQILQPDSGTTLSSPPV
KIT, sequence (P10721 26-976): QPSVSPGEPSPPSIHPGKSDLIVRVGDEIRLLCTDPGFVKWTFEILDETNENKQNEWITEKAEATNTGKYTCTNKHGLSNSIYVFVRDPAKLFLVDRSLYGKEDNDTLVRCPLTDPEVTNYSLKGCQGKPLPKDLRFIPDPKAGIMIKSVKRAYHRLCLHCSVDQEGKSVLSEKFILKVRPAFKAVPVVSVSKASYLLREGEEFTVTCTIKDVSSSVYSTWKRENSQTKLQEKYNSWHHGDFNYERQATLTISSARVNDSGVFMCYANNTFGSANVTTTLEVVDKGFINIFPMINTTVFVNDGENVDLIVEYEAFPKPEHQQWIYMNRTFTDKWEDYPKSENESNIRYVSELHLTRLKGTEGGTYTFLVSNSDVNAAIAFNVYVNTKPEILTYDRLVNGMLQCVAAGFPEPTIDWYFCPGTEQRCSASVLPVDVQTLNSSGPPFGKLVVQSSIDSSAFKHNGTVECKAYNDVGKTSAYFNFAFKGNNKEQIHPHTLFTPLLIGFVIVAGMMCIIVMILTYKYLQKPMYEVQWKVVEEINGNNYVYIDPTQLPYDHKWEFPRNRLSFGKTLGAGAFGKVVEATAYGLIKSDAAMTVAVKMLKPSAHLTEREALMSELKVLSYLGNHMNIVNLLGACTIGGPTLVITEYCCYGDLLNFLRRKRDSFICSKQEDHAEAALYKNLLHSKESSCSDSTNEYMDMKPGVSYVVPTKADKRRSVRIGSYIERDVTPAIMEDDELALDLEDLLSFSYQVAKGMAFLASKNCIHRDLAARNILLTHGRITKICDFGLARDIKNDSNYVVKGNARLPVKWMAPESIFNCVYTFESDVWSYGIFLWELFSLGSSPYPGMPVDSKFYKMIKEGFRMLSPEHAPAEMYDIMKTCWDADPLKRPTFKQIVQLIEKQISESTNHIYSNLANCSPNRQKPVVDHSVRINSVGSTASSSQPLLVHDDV
CRAF S338, sequence (Q99N57 whole entry): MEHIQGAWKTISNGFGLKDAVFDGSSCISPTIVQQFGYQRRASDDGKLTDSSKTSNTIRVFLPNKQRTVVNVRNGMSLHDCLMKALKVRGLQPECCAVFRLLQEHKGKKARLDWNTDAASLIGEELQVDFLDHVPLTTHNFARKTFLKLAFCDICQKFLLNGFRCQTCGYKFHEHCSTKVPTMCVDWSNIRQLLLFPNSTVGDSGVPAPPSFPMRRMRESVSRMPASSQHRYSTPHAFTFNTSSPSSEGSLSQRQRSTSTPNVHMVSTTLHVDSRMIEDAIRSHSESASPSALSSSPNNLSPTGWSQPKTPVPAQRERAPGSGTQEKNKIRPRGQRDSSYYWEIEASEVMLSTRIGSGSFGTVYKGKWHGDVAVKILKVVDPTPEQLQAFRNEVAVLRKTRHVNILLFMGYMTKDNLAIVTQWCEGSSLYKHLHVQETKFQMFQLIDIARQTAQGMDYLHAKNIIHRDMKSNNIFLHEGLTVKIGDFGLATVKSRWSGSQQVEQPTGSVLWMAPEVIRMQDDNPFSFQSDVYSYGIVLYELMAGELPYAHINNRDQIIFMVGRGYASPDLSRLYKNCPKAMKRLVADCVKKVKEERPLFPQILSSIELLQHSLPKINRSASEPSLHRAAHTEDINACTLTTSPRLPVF
PDGFRB, sequence (P09619 33-1106): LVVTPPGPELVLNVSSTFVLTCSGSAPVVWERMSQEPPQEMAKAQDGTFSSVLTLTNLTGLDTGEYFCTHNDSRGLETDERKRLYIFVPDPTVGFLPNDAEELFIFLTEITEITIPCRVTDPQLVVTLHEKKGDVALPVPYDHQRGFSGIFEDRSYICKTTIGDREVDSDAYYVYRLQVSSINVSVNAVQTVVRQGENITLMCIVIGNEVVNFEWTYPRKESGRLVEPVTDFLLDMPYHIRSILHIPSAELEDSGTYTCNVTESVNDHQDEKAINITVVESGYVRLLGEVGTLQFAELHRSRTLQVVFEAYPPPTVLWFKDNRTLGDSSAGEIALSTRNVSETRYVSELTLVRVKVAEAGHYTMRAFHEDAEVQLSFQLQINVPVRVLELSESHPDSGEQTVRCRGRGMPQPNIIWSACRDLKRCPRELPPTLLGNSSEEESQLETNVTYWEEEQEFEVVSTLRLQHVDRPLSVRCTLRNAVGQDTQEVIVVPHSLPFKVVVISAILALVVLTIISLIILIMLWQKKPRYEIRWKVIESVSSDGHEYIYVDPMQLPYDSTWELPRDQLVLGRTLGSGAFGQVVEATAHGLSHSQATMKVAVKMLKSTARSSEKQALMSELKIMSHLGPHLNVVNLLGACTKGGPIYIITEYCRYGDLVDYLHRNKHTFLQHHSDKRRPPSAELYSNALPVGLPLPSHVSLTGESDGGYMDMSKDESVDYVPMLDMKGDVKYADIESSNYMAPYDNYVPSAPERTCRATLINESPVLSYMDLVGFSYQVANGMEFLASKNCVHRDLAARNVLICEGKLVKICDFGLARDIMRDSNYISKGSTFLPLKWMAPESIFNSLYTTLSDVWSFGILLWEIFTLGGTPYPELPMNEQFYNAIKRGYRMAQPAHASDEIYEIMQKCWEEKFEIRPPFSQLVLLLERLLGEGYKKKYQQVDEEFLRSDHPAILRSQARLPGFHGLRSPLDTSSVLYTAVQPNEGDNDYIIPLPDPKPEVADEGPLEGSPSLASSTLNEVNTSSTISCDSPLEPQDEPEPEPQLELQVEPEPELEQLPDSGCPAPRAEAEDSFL

Structure (SMILES)	B-RAF/C-RAF heterodimer formation [1]	% Inhibition at 10 μM (CSF1R)	endothelial tube formation and % pericyte-covered tube length [2]	% Inhibition at 10 μM (ABL1)	% Inhibition at 10 μM (EGFR L861Q)	% Inhibition at 10 μM (BRAF)	EC50 (VSMCs)	% Inhibition at 10 μM (KDR (VEGFR2))	% Inhibition at 10 μM (EGFR L858R)	phosphorylation on CRAF S338 (CRAF S338)	further results
Nc1cc(Oc2ccc(-c3nnc(Nc4cccc(C(F)(F)F)c4)[nH]3)cc2)ncn1 [Compound 3]	had no effect	79%	did not affect endothelial tube formation	4%	−1%	17%	15000 nM	31%	−3%	–	Kd (PDGFRB; PDGFRβ): 40 nM; Kd (KIT): 3.7 nM; Kd (PDGFRA; PDGFRα): 32 nM; Kd (FLT3): 1.4 nM
CSc1nc(N)cc(Oc2ccc(-c3nnc(Nc4cccc(C(F)(F)F)c4)[nH]3)cc2)n1 [Compound 6]	completely inhibited	23%	dramatic reduction	3%	−4%	−1%	590 nM	16%	−10%	does not promote this increase	% Control (PDGFRB; 10 uM, PDGFRB): 0.5%; % Control (KIT; 10 uM): 0%; EC50 (CT26): 710 nM; EC50 (A431): 430 nM; EC50 (M21): 450 nM; EC50 (M21L): 420 nM; % Control (CDK11): 32%; % Control (PDGFRA; 10 uM, PDGFRA): 0.25%; EC50 (HCT116): 400 nM; EC50 (MDA-MB231): 480 nM; % Control (FLT3; 10 uM): 2.8%
CNC(=O)c1cc(Oc2ccc(NC(=O)Nc3ccc(Cl)c(C(F)(F)F)c3)cc2)ccn1 [sorafenib, reference compound]	–	–	–	–	–	–	–	–	–	induces an increase	EC50 (HCT116; Homo sapiens, HCT-116): 8210 nM; EC50 (MDA-MB231; Homo sapiens, MDA-MB-231): > 10000 nM
